# Measurements from BindingDB's records for patent US20240316047 (Accent Therapeutics, 2024).
# Molecular target: ATP-dependent RNA helicase A (UniProt Q08211)
# Assay: Biochemical Assay
# Sequence of ATP-dependent RNA helicase A (Q08211 whole entry): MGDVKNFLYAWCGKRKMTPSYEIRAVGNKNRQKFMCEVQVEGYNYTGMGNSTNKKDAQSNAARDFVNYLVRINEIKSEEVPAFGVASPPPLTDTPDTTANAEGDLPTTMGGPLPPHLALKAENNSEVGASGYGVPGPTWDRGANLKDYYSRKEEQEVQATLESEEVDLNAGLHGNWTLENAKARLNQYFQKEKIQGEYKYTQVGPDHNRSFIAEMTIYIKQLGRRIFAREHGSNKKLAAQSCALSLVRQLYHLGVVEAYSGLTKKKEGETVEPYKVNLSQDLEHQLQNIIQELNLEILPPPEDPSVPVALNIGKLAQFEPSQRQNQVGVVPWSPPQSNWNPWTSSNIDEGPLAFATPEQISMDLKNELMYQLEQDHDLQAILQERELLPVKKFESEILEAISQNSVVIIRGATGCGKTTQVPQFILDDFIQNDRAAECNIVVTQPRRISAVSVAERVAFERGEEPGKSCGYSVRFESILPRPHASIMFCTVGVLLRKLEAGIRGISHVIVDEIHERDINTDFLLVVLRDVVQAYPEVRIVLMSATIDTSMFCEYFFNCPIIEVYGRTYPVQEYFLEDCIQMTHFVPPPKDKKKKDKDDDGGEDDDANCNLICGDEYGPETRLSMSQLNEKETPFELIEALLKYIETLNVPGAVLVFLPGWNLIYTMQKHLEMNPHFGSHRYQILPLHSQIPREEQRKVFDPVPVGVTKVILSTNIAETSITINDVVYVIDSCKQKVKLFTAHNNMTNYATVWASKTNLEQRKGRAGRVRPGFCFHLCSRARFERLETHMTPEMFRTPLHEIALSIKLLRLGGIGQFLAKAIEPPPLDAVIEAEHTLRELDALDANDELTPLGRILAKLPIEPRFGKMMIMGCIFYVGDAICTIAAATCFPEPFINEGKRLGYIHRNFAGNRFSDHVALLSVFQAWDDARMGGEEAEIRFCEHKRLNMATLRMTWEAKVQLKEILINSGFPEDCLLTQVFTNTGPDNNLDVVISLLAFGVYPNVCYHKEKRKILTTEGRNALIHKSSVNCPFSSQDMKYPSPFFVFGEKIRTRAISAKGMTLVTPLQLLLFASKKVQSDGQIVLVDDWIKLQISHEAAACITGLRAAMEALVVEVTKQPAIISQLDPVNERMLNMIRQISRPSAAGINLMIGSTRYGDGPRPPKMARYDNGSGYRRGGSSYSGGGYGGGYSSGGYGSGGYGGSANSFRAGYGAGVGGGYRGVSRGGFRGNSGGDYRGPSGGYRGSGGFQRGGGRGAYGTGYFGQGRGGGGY
row,IC50 [µM],Structure (SMILES)
1,0.0384,"Cc1cc(C(=O)Nc2cc(Cl)cc(NS(C)(=O)=O)c2)cn1-c1ccccc1 [US20240316047, Example 129]"
2,0.234,"CC(C)(C)OC(=O)N1CCC(n2cc(C(=O)Nc3cc(Cl)cc(NS(C)(=O)=O)c3)cn2)CC1 [US20240316047, Example 136]"
3,0.0511,"Cc1cccnc1-c1cc(C(=O)Nc2cc(Cl)cc(NS(C)(=O)=O)c2)cn1CC(F)F [US20240316047, Example 143]"
4,0.0108,"Cc1sc(C(=O)Nc2cc(Cl)cc(NS(C)(=O)=O)c2)cc1-c1ncc(N2CCC3(C2)CC3(F)F)cn1 (centres undefined) [US20240316047, Example 491]"
